Each structure is given as a SMILES string. *1 amine or outer side, *2 acyl side, *3 side chain or, on linkers, in order; H or OH if unused. Where a SMILES comes first, the peptide text is derived from it. Side-chain parts run from the residue outwards. [ ]: non-standard residue; d: D form. The star is where a group is joined. γGlu = O=C(O)[C@H](CCC(=O)[*:2])N[*:1]; Stearoyl = CCCCCCCCCCCCCCCCCC(=O)*; AEEA = NCCOCCOCC(=O)O; Aib = CC(C)(N)C(=O)O

For one experiment, the target named is Human glucagon receptors (Homo sapiens, UniProt P47871). The experiment in a line: Glucagon receptor activation assay (CRE-luciferase reporter, CHO-K1). (In general: Reporter assays use an easily measured gene product as a stand-in for the process of interest.)
Chain of Human glucagon receptors (P47871 26-477): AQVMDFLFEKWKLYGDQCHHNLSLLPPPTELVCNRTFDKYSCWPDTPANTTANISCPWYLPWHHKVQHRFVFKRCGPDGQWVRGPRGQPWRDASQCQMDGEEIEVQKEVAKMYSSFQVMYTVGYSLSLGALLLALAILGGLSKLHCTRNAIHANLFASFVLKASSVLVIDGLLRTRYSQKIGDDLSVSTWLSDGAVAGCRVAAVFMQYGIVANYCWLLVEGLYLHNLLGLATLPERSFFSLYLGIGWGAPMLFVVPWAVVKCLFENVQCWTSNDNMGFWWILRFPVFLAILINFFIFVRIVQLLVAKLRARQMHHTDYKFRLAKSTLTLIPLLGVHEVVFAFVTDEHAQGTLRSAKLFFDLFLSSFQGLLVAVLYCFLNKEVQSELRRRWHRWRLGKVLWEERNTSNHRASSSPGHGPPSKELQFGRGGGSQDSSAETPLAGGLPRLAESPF
Another experiment concerns the target Human GLP-1 receptors (Homo sapiens, UniProt P43220). The experiment in a line: GLP-1 receptor activation assay (CRE-luciferase reporter, CHO-K1).

Chain of Human GLP-1 receptors (P43220 24-463): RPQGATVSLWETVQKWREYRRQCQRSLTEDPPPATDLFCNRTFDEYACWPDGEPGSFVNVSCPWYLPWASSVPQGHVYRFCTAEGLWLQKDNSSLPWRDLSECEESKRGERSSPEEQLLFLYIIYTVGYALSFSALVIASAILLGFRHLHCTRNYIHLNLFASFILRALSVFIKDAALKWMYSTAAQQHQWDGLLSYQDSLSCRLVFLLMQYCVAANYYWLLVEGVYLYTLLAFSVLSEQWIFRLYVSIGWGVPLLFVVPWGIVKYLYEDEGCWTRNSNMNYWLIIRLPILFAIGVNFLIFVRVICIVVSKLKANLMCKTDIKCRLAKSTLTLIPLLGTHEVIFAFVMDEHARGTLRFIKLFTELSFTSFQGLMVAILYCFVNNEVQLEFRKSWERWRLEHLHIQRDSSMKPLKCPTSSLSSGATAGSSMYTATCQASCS

Broadly, the EC50 is the concentration needed to bring the measured effect to its halfway point. With `CSCC[C@H](NC(=O)[C@H](CC(C)C)NC(=O)[C@H](Cc1c[nH]c2ccccc12)NC(=O)[C@H](CCC(N)=O)NC(=O)[C@@H](NC(=O)[C@H](Cc1ccccc1)NC(=O)[C@H](CC(=O)O)NC(=O)[C@H](CCC(N)=O)NC(=O)[C@H](C)NC(=O)[C@H](CCCNC(=N)N)NC(=O)[C@H](CCCNC(=N)N)NC(=O)C(C)(C)NC(=O)[C@H](CC(=O)O)NC(=O)[C@H](CC(C)C)NC(=O)[C@H](Cc1ccc(O)cc1)NC(=O)[C@H](CCCCN)NC(=O)[C@H](CO)NC(=O)[C@H](CCCCNC(=O)COCCOCCNC(=O)COCCOCCNC(=O)CC[C@H](NC(=O)CCCCCCCCCCCCCCCCC(N)=O)C(=O)O)NC(=O)[C@H](CC(=O)O)NC(=O)[C@H](CO)NC(=O)[C@@H](NC(=O)[C@H](Cc1ccccc1)NC(=O)[C@@H](NC(=O)CNC(=O)[C@H](CCC(N)=O)NC(=O)C(C)(C)NC(=O)[C@@H](N)Cc1c[nH]cn1)[C@@H](C)O)[C@@H](C)O)C(C)C)C(=O)N[C@@H](CC(N)=O)C(=O)N[C@H](C(=O)N[C@@H](CCCCN)C(=O)O)[C@@H](C)O` [Compound 13], the EC50 at Human glucagon receptors and on Human GLP-1 receptors was 0.01 to 0.1 nM each time.

Take `CCCCCCCCCCCCCCCCCC(=O)N[C@@H](CCC(=O)NCCOCCOCC(=O)NCCOCCOCC(=O)NCCCC[C@H](NC(=O)[C@H](CC(=O)O)NC(=O)[C@H](CO)NC(=O)[C@@H](NC(=O)[C@H](Cc1ccccc1)NC(=O)[C@@H](NC(=O)CNC(=O)[C@H](CCC(N)=O)NC(=O)C(C)(C)NC(=O)[C@@H](N)Cc1c[nH]cn1)[C@@H](C)O)[C@@H](C)O)C(=O)N[C@@H](CO)C(=O)N[C@@H](CCCCN)C(=O)N[C@@H](Cc1ccc(O)cc1)C(=O)N[C@@H](CC(C)C)C(=O)N[C@@H](CC(=O)O)C(=O)NC(C)(C)C(=O)N[C@@H](CCCNC(=N)N)C(=O)N[C@@H](CCCNC(=N)N)C(=O)N[C@@H](C)C(=O)N[C@@H](CCC(N)=O)C(=O)N[C@@H](CC(=O)O)C(=O)N[C@@H](Cc1ccccc1)C(=O)N[C@H](C(=O)N[C@@H](CCC(N)=O)C(=O)N[C@@H](Cc1c[nH]c2ccccc12)C(=O)N[C@@H](CC(C)C)C(=O)N[C@@H](CCSC)C(=O)N[C@@H](CC(N)=O)C(=O)N[C@H](C(=O)N[C@@H](CCCCN)C(=O)O)[C@@H](C)O)C(C)C)C(=O)O` [Compound 3]: the EC50 at Human glucagon receptors and on Human GLP-1 receptors was less than 0.01 nM in each case.

In the case of `CCCCCCCCCCCCCCCCCC(=O)N[C@@H](CCC(=O)NCCOCCOCC(=O)NCCOCCOCC(=O)NCCCC[C@H](NC(=O)[C@H](CC(=O)O)NC(=O)[C@H](CO)NC(=O)[C@@H](NC(=O)[C@H](Cc1ccccc1)NC(=O)[C@@H](NC(=O)CNC(=O)[C@H](CCC(N)=O)NC(=O)C(C)(C)NC(=O)[C@@H](N)Cc1c[nH]cn1)[C@@H](C)O)[C@@H](C)O)C(=O)N[C@@H](CO)C(=O)N[C@@H](CCCCN)C(=O)N[C@@H](Cc1ccc(O)cc1)C(=O)N[C@@H](CC(C)C)C(=O)N[C@@H](CC(=O)O)C(=O)N[C@H]1CCC(=O)NCCCC[C@@H](C(=O)N[C@@H](CC(=O)O)C(=O)N[C@@H](Cc2ccccc2)C(=O)N[C@H](C(=O)N[C@@H](CCC(N)=O)C(=O)N[C@@H](Cc2c[nH]c3ccccc23)C(=O)N[C@@H](CC(C)C)C(=O)N[C@@H](CCSC)C(=O)N[C@@H](CC(N)=O)C(=O)N[C@H](C(=O)N[C@@H](CCCCN)C(N)=O)[C@@H](C)O)C(C)C)NC(=O)[C@H](C)NC(=O)[C@H](CCCNC(=N)N)NC(=O)[C@H](CCCNC(=N)N)NC1=O)C(=O)O` [Compound 19, H-HAibQGTFTSDZSKYLDERRAKDFVQWLMNTK-NH2], the EC50 on Human glucagon receptors and on Human GLP-1 receptors was less than 0.01 nM each time.

For `CCCCCCCCCCCCCCCCCC(=O)N[C@@H](CCC(=O)NCCOCCOCC(=O)NCCOCCOCC(=O)NCCCC[C@H](NC(=O)[C@H](CC(=O)O)NC(=O)[C@H](CO)NC(=O)[C@@H](NC(=O)[C@H](Cc1ccccc1)NC(=O)[C@@H](NC(=O)CNC(=O)[C@H](CCC(N)=O)NC(=O)C(C)(C)NC(=O)[C@@H](N)Cc1c[nH]cn1)[C@@H](C)O)[C@@H](C)O)C(=O)N[C@@H](CO)C(=O)N[C@@H](CCCCN)C(=O)N[C@@H](Cc1ccc(O)cc1)C(=O)N[C@@H](CC(C)C)C(=O)N[C@@H](CC(=O)O)C(=O)N[C@H]1CC(=O)N[C@@H](CC(C)C)C(=O)NCCCC[C@@H](C(=O)N[C@@H](CC(=O)O)C(=O)N[C@@H](Cc2ccccc2)C(=O)N[C@H](C(=O)N[C@@H](CCC(N)=O)C(=O)N[C@@H](Cc2c[nH]c3ccccc23)C(=O)N[C@@H](CC(C)C)C(=O)N[C@@H](CCSC)C(=O)N[C@@H](CC(N)=O)C(=O)N[C@H](C(=O)N[C@@H](CCCCN)C(=O)O)[C@@H](C)O)C(C)C)NC(=O)[C@H](C)NC(=O)[C@H](CCCNC(=N)N)NC(=O)[C@H](CCCNC(=N)N)NC1=O)C(=O)O` [Compound 38, H-HAibQGTFTSDZSKYLDDRRAKDFVQWLMNTK-OH], the EC50 on Human glucagon receptors and on Human GLP-1 receptors was less than 0.01 nM throughout.

As for `CCCCCCCCCCCCCCCCCC(=O)N[C@@H](CCC(=O)NCCOCCOCC(=O)NCCOCCOCC(=O)NCCOCCOCC(=O)NCCOCCOCC(=O)NCCCC[C@H](NC(=O)[C@H](CC(=O)O)NC(=O)[C@H](CO)NC(=O)[C@@H](NC(=O)[C@H](Cc1ccccc1)NC(=O)[C@@H](NC(=O)CNC(=O)[C@H](CCC(N)=O)NC(=O)C(C)(C)NC(=O)[C@@H](N)Cc1c[nH]cn1)[C@@H](C)O)[C@@H](C)O)C(=O)N[C@@H](CO)C(=O)N[C@@H](CCCCN)C(=O)N[C@@H](Cc1ccc(O)cc1)C(=O)N[C@@H](CC(C)C)C(=O)N[C@@H](CC(=O)O)C(=O)N[C@H]1CCC(=O)NCCCC[C@@H](C(=O)N[C@@H](CC(=O)O)C(=O)N[C@@H](Cc2ccccc2)C(=O)N[C@H](C(=O)N[C@@H](CCC(N)=O)C(=O)N[C@@H](Cc2c[nH]c3ccccc23)C(=O)N[C@@H](CC(C)C)C(=O)N[C@@H](CCSC)C(=O)N[C@@H](CC(N)=O)C(=O)N[C@H](C(=O)N[C@@H](CCCCN)C(=O)O)[C@@H](C)O)C(C)C)NC(=O)[C@H](C)NC(=O)[C@H](CCCNC(=N)N)NC(=O)[C@H](CCCNC(=N)N)NC1=O)C(=O)O` [Compound 25, H-HAibQGTFTSDZSKYLDERRAKDFVQWLMNTK-OH], the EC50 at Human glucagon receptors and on Human GLP-1 receptors was less than 0.01 nM in each case.

Regarding `CCCCCCCCCCCCCCCCCC(=O)N[C@@H](CCC(=O)NCCOCCOCC(=O)NCCOCCOCC(=O)NCCCC[C@H](NC(=O)[C@H](CO)NC(=O)[C@@H](NC(=O)[C@H](Cc1ccccc1)NC(=O)[C@@H](NC(=O)CNC(=O)[C@H](CCC(N)=O)NC(=O)C(C)(C)NC(=O)[C@@H](N)Cc1c[nH]cn1)[C@@H](C)O)[C@@H](C)O)C(=O)N[C@@H](Cc1ccc(O)cc1)C(=O)N[C@@H](CO)C(=O)N[C@@H](CCCCN)C(=O)N[C@@H](Cc1ccc(O)cc1)C(=O)N[C@@H](CC(C)C)C(=O)N[C@@H](CC(=O)O)C(=O)NC(C)(C)C(=O)N[C@@H](CCCNC(=N)N)C(=O)N[C@@H](CCCNC(=N)N)C(=O)N[C@@H](C)C(=O)N[C@@H](CCC(N)=O)C(=O)N[C@@H](CC(=O)O)C(=O)N[C@@H](Cc1ccccc1)C(=O)N[C@H](C(=O)N[C@@H](CCC(N)=O)C(=O)N[C@@H](Cc1c[nH]c2ccccc12)C(=O)N[C@@H](CC(C)C)C(=O)N[C@@H](CCSC)C(=O)N[C@@H](CC(N)=O)C(=O)N[C@H](C(=O)N[C@@H](CCCCN)C(=O)O)[C@@H](C)O)C(C)C)C(=O)O` [Compound 40] (H-H[Aib]QGTFTSK([AEEA-AEEA-γGlu-Stearoyl])YSKYLD[Aib]RRAQDFVQWLMNTK-OH), the EC50 is greater than 1 nM on Human glucagon receptors and 0.1 to 1 nM on Human GLP-1 receptors.

As for `CCCCCCCCCCCCCCCCCC(=O)N[C@@H](CCC(=O)NCCOCCOCC(=O)NCCOCCOCC(=O)NCCCC[C@H](NC(=O)[C@H](CC(=O)O)NC(=O)[C@H](CO)NC(=O)[C@@H](NC(=O)[C@H](Cc1ccccc1)NC(=O)[C@@H](NC(=O)CNC(=O)[C@H](CCC(N)=O)NC(=O)C(C)(C)NC(=O)[C@@H](N)Cc1c[nH]cn1)[C@@H](C)O)[C@@H](C)O)C(=O)N[C@@H](CO)C(=O)N[C@@H](CCCCN)C(=O)N[C@@H](Cc1ccc(O)cc1)C(=O)N[C@@H](CC(C)C)C(=O)N[C@@H](CC(=O)O)C(=O)N[C@H]1CSCc2cccc(c2)CSC[C@@H](C(=O)N[C@@H](CC(=O)O)C(=O)N[C@@H](Cc2ccccc2)C(=O)N[C@H](C(=O)N[C@@H](CCC(N)=O)C(=O)N[C@@H](Cc2c[nH]c3ccccc23)C(=O)N[C@@H](CC(C)C)C(=O)N[C@@H](CCSC)C(=O)N[C@@H](CC(N)=O)C(=O)N[C@H](C(=O)N[C@@H](CCCCN)C(=O)O)[C@@H](C)O)C(C)C)NC(=O)[C@H](C)NC(=O)[C@H](CCCNC(=N)N)NC(=O)[C@H](CCCNC(=N)N)NC1=O)C(=O)O` [Compound 22, H-HAibQGTFTSDZSKYLDCRRACDFVQWLMNTK-OH], the EC50 on Human glucagon receptors and at Human GLP-1 receptors was less than 0.01 nM each time.

As for `CCCCCCCCCCCCCCCCCC(=O)N[C@@H](CCC(=O)NCCOCCOCC(=O)NCCOCCOCC(=O)NCCOCCOCC(=O)NCCOCCOCC(=O)NCCCC[C@H](NC(=O)[C@H](CC(=O)O)NC(=O)[C@H](CO)NC(=O)[C@@H](NC(=O)[C@H](Cc1ccccc1)NC(=O)[C@@H](NC(=O)CNC(=O)[C@H](CCC(N)=O)NC(=O)C(C)(C)NC(=O)[C@@H](N)Cc1c[nH]cn1)[C@@H](C)O)[C@@H](C)O)C(=O)N[C@@H](CO)C(=O)N[C@@H](CCCCN)C(=O)N[C@@H](Cc1ccc(O)cc1)C(=O)N[C@@H](CC(C)C)C(=O)N[C@@H](CC(=O)O)C(=O)N[C@H]1CCC(=O)NCCCC[C@@H](C(=O)N[C@@H](CC(=O)O)C(=O)N[C@@H](Cc2ccccc2)C(=O)N[C@H](C(=O)N[C@@H](CCC(N)=O)C(=O)N[C@@H](Cc2c[nH]c3ccccc23)C(=O)N[C@@H](CC(C)C)C(=O)N[C@@H](CCSC)C(=O)N[C@@H](CC(N)=O)C(=O)N[C@H](C(=O)N[C@@H](CCCCN)C(N)=O)[C@@H](C)O)C(C)C)NC(=O)[C@H](C)NC(=O)[C@H](CCCNC(=N)N)NC(=O)[C@H](CCCNC(=N)N)NC1=O)C(=O)O` [Compound 24, H-HAibQGTFTSDZSKYLDERRAKDFVQWLMNTK-NH2], the results for the EC50 at Human glucagon receptors and at Human GLP-1 receptors were 0.01 to 0.1 nM and less than 0.01 nM, respectively.

(Values after patent US11713344B2 (DONG-A ST CO., LTD., priority 2017, dated 2023).)
